The test system of the assay is HEK293T cells. As to the kind of experiment: Ub remnant profiling (diGly proteomics). In kind it is cell-based, human. The note with it: 15 μM, 24 h vs DMSO. As for the experimental part: For total proteomics and Ub remnant profiling (diGly proteomics), HEK293T cells were treated with 15 μM BI8626 (in DMSO) or an equivalent volume of DMSO for 24 h, washed with ice-cold 1 x DPBS, and lysed in 9 M urea, 50 mM Tris (pH 8.0) and 150 mM NaCl, supplemented with protease inhibitor (Roche) and 50 µM PR-619, and processed essentially as described. Briefly, the cells were lysed by sonication, non-solubilized material removed by centrifugation, and the protein concentration was determined with a Pierce BCA Protein Assay Kit. 5 mg was used for further MS processing and four biological replicates per condition.
After reduction with 5 mM DTT and alkylation with 10 mM chloroacetamide, followed by quenching with 5 mM DTT, lysates were digested with 5 ng/μl LysC protease (Wako) at RT for 1 h. Subsequent digestion of peptides with trypsin (Promega) at a 1: 200 enzyme: peptide ratio was performed. Desalted and lyophilized peptides were resuspended in 1.5 ml IAP buffer (50 mM MOPS (pH 7.2), 10 mM Na2HPO4, 50 mM NaCl) and centrifuged to remove insoluble material. […]
Data collection was controlled by Tune v.4.0.4084.22 (Thermo Scientific) and Xcalibur v.2.4 (Thermo Fisher Scientific). Raw data files from quadruplicate samples were analyzed using MaxQuant v.1.6.0.1 (Max Planck Institute of Biochemistry)[56],[57]. […]

With `NCc1cccc(CNc2ncnc3c(N4CCN(Cc5ccccc5)CC4)ncnc23)c1` [BI8626], the “Protein ubiquitination changes (diGly proteomics)” value is reported as “predominantly reductions in protein ubiquitination”.
